Residues, ends and D or L forms follow the SMILES beside them. *: point of attachment. Cbz = O=C(OCc1ccccc1)*; CH2Cl = ClC*
Assays:
MBP-Sb9 [1] = target: T1, MBP-Sb9 (Homo sapiens, UniProt P50453); test: Surface plasmon resonance (SPR) binding; settings: 25° C., 1:1 Langmuir model
T1 construct: made in house
Description: Surface plasmon resonance (SPR) measures change in refractive index on a biosensor surface, as analytic mass accumulates via binding to an attached ligand. This allows derivation of affinity (KD) from measured kinetic rates of association (ka) and dissociation (kd). All assays were run at 25° C. on a BiOptix 404pi. An NTA biosensor chip was used in this study to pre-concentrate 3 μM MBP-Sb9 via an N-terminal His-tag. MBP-Sb9 was covalently immobilized with EDC/NHS in 20 mM HEPES pH 8.0, 150 mM NaCl, 0.05% Tween-20, 5 mM β-ME to 10,000 to 15,000 RUs. MBP was similarly immobilized on a separate channel as a negative control. Compounds were injected as 3-fold serial dilutions in duplicate starting at 200 μM. Injections were done at 50 μL/min for 60 seconds, followed by a 120 second dissociation in 20 mM HEPES, pH 8.0, 150 mM NaCl, 0.05% Tween-20, 5 mM j-ME, 1% DMSO. A series of five DMSO standards between 0.5% and 1.5% were included with each run to correct for bulk refractive index. Sensorgrams were analyzed using Scrubber 2 software with a double reference and fit to a 1:1 Langmuir model to determine the interaction parameters KD, ka, and kd.

MBP = MBP (Escherichia coli, UniProt P0AEX9); test: SPR negative control channel; assay type: binding
Description: FIG. 4B. Sensorgrams of compounds 3,4-dihydroxybenzoic acid (top), 3-oxo-1-indancarboxylic acid (middle), and the compound of Formula (III) (bottom) show the binding of 3,4-dihydroxybenzoic acid and the compound of Formula (III) to Sb9 (top), but not to MBP (bottom) by Surface Plasmon Resonance (SPR).
All assays were run at 25° C. on a BiOptix 404pi. An NTA biosensor chip was used in this study to pre-concentrate 3 μM MBP-Sb9 via an N-terminal His-tag. MBP-Sb9 was covalently immobilized with EDC/NHS in 20 mM HEPES pH 8.0, 150 mM NaCl, 0.05% Tween-20, 5 mM β-ME to 10,000 to 15,000 RUs. MBP was similarly immobilized on a separate channel as a negative control.

MBP-Sb9 [2] = test: Thermal stability assay (TSA) fragment screen; assay type: binding; settings: 5000 to 21 μM
Description: FIG. 4A. The upper panels show the TSA results of the MBP-Sb9 protein incubated with 5 mM 3,4-dihydroxybenzoic acid (3,4-DHBA; left) and 3-oxo-1-indancarboxylic acid (right), or with 2.5% DMSO. The thermal shifts of the compounds 3,4-dihydroxybenzoic acid and 3-oxo-1-indancarboxylic acid are shown in a thick dark line against a baseline control shown as a thin gray line. The bottom panels show the TSA results of the MBP-Sb9 protein incubated with 3,4-dihydroxybenzoic acid (left) or 3-oxo-1-indancarboxylic acid (right) at different concentrations, including 5000, 1667, 556, 185, 62, and 21 μM. The concentration-response curves are plotted in a black/gray color scale (higher intensity is higher concentration) and the straight line plots represent the compound background signal.
TSA is an analytic tool to estimate the overall stability of a protein by monitoring the shift in its melting temperature upon changing the buffer conditions or titrating various ligands. As the protein unfolds with increasing temperature in a thermal cycler (CFX384 Touch Real-Time PCR Detection System), SYPRO orange dye binds to the exposed hydrophobic core and fluoresces, leading to the signal that is measured in comparison to temperature to produce a melt curve. […] Dye was added at 2×strength, and the readings were performed from 25° C. to 95° C. at 0.5° C. intervals. […]

[3] = test system: B16-WT and B16-Sb9 KO cells; test: IL2-induced GrB expression and apoptosis by flow cytometry; assay type: cell-based, mouse; settings: 10 μM; IL2 70 ng/mL, 48 h
Source text: FIG. 1H. […] Data are expressed as means±SD from three independent experiments. ***P<0.001 (Student's t-test).
FIGS. 1J-1K. […] Cells treated with PBS alone were used as a negative control. Data are expressed as means±SD from three independent experiments. *P<0.05, ***P<0.001 (Student's t-test).

T1 sequence (P50453 whole entry): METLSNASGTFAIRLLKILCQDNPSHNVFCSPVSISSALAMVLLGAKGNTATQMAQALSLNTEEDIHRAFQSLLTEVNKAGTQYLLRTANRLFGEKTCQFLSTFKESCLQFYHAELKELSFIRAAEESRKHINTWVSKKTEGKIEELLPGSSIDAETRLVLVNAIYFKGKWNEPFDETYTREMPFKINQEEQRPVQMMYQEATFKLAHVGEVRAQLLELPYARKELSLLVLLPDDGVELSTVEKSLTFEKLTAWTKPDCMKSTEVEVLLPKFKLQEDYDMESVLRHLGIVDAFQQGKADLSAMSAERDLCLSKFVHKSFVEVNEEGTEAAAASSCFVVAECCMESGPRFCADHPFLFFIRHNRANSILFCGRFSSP

Structure (SMILES)	Kd (MBP-Sb9 [1]) [µM]	binding to MBP (negative control) (MBP)	Tm1 shift (MBP-Sb9 [2])	apoptosis of IL2-treated cells [3]
O=C(O)c1ccc(O)c(O)c1 [3,4-dihydroxybenzoic acid, reference compound]	88	not to MBP	dose-dependent Tm1 shift	
O=C1CC(C(=O)O)c2ccccc21 (centres unmarked) [3-oxo-1-indancarboxylic acid]			dose-dependent Tm1 shift	
C[C@H](NC(=O)OCc1ccccc1)C(=O)N[C@@H](C)C(=O)N[C@@H](CC(=O)O)C(=O)CCl [GrB inhibitor (368050)] (Cbz-Ala-Ala-Asp-CH2Cl)				suppresses apoptosis

From patent US20230255906A1, “Targeting Serpin B9 in Cancer” (The Brigham and Women`s Hospital, Inc., priority 2020, published 2023)
